Literature values, collected in patent US20170071869A1 (Teva Pharmaceutical Industries Ltd., priority 2014, published 2017).

Key:
[1] = tested on: genes related to antigen presentation (NFkB pathway); conditions: mainly via the NFkB pathway

oral bioavailability: high oral bioavailability
SMILES: CCN(C(=O)c1c(O)c2c(Cl)cccc2n(C)c1=O)c1ccccc1 [Laquinimod]
suppression of genes related to antigen presentation and corresponding inflammatory pathways [1]: induced suppression of genes related to antigen presentation
